This is an account of results in US10662140B2, “Method for skin-whitening using composition containing resveratryl triglycolate” (KYUNGPOOK NATIONAL UNIVERSITY INDUSTRY-ACADEMIC COOPERATION …, priority 2016, dated 2020).

Where two headings read alike, the source gives them in different places.

The subject of one series is HEMs. Briefly: Melanin synthesis in L-tyrosine-stimulated HEMs. The format is cell-based, human. The settings on record: for effect on melanin synthesis: concentrations of up to 10 μM. As to the method: Human epidermal melanocytes (HEM) derived from neonatal human foreskins were purchased from Cascade Biologics (Portland, Oreg., USA). The HEMs were cultivated in Medium 254 supplemented with human melanocyte growth supplements (Cascade Biologics) and antibiotics.
The extracellular melanin levels were evaluated by measuring the absorbance of the conditioned media at a wavelength of 490 nm, while the intracellular melanin levels were evaluated after extracting melanin from the cells using 0.1 M NaOH at 60° C. for 60 minutes. The values for melanin content were normalized with respect to the protein content in each sample. The protein content was evaluated using the Bio-Rad DC assay (Bio-Rad Laboratories, Inc., Hercules, Calif., USA).

Series [1] deals with Human epidermal melanocytes (HEM). The settings on record: HEMs, 48 hours.
The test system of series [2] is cultivated melanocytes and a reconstituted skin tissue model. The settings on record: cited from earlier work.
For series [3], the system named is human epidermal melanocytes. The settings on record: cited from earlier work.

As for `O=C(O)CO` [GA, glycolic acid], the “effect on melanin synthesis” value in the series with HEMs is on record as “no significant effect”.
Consider `CC(=O)Oc1ccc(C=Cc2cc(OC(C)=O)cc(OC(C)=O)c2)cc1` [RTA, resveratryl triacetate], for which, in series [1] (concentrations above 30 μM), the cytotoxicity entry was “showed cytotoxicity”. For the same compound, the cytotoxicity result in series [1] (concentrations below 30 μM) is on record as “barely showed cytotoxicity”. For the same compound, in series [2] (compared to resveratrol), the stability to oxidation result is “higher stability” and the toxicity entry is given as “less toxic”. Further, the melanin synthesis result in series [2] (cultivated melanocytes and reconstituted skin tissue model) is “effective inhibitor”.
On to `OC[C@H]1O[C@@H](Oc2ccc(O)cc2)[C@H](O)[C@@H](O)[C@@H]1O` [arbutin], for which the “effect on melanin synthesis” value is reported as “no effect” in the series on HEMs and “no significant effect” in the series with HEMs (listed as Arbutin).
Consider `Oc1ccc(C=Cc2cc(O)cc(O)c2)cc1` [resveratrol], for which, in series [3], the “activity of MITF and TYR promoter” value is “suppresses”; the melanin synthesis entry is on record as “inhibit melanin synthesis”.
Take `O=C(CO)Oc1ccc(/C=C/c2cc(OC(=O)CO)cc(OC(=O)CO)c2)cc1` [resveratryl triglycolate]: the melanin level entry in the series with HEMs is reported as “reduced”.
